In ChEMBL document CHEMBL5523769, “Discovery of Novel Nonpeptidic and Noncovalent Small Molecule 3CLpro Inhibitors as anti-SARS-CoV-2 Drug Candidate” (J Med Chem, 2024):

Experiments:
[1] = Cytotoxicity against African green monkey Vero E6 cells incubated for 24 hrs by CCK8 assay; format: toxicity, cell-based, Vero C1008; settings: chlorocebus sabaeus
[2] = target: Replicase polyprotein 1ab (Severe acute respiratory syndrome coronavirus 2) (UniProt P0DTD1); settings: dose 31.25-1000 nM, time 100.0 sec
[3] = target: Replicase polyprotein 1ab (Severe acute respiratory syndrome coronavirus 2) (UniProt P0DTD1); settings: dose 31.25-1000 nM, time 100.0 sec; remark: listed apart in the source
[4] = target: T1, Calpain-1 catalytic subunit (Homo sapiens, UniProt P07384); test: Inhibition of human Calpain 1 using N-Suc-Leu-Leu-Val-Tyr-7-AMC as substrate incubated for 10 mins by FRET-enzymatic assay
T1 sequence (P07384 whole entry): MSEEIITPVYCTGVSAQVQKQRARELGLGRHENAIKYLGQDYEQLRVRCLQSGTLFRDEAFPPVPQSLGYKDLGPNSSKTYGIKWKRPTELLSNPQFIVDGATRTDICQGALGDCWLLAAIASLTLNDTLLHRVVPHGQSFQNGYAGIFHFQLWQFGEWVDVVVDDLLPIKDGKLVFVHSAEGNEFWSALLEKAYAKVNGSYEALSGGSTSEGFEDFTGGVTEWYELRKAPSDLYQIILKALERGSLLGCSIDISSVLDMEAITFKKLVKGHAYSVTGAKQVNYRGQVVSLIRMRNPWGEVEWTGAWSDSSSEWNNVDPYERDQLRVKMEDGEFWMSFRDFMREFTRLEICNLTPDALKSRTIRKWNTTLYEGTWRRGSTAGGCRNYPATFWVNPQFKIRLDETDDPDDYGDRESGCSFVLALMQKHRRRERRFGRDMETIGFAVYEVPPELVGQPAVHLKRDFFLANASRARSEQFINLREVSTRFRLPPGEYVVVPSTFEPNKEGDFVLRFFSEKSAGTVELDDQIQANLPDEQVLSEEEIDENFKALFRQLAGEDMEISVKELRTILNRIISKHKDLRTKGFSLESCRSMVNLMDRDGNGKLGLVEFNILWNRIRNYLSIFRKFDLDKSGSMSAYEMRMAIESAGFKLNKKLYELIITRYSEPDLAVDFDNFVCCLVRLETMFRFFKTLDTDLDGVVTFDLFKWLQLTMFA

Cathepsin B = Cathepsin B (Homo sapiens, UniProt P07858); test: Inhibition of human Cathepsin B using CBZ-Arg-Arg-AMC as substrate incubated for 10 mins by FRET-enzymatic assay
Cathepsin D = Cathepsin D (Homo sapiens, UniProt P07339); test: Inhibition of human Cathepsin D using MCA-PLGL-Dap(Dnp)-AR-NH2 as substrate incubated for 10 mins by FRET-enzymatic assay
Cathepsin K = target: T2, Cathepsin K (Homo sapiens, UniProt P43235); test: Inhibition of human Cathepsin K using Z-Phe-Arg-AMC as substrate incubated for 10 mins by FRET-enzymatic assay
T2 sequence (P43235 whole entry): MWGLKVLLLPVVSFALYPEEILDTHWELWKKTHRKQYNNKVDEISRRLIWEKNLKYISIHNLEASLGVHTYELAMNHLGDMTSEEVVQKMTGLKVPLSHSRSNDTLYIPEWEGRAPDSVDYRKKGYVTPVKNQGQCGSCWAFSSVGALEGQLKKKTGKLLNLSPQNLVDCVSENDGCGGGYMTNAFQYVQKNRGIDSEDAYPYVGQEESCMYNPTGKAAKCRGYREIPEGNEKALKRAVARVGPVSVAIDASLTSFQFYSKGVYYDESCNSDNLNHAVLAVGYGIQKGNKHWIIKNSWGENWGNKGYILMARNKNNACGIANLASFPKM

Procathepsin L = Procathepsin L (Homo sapiens, UniProt P07711); test: Inhibition of human Cathepsin L using Z-Phe-Arg-AMC as substrate incubated for 10 mins by FRET-enzymatic assay
Trypsin = Trypsin (Homo sapiens, UniProt P07477+P07478+P35030); test: Inhibition of human trypsin using CBZ-Arg-Arg-AMC as substrate incubated for 10 mins by FRET-enzymatic assay; format: protein assay
Prothrombin = Prothrombin (Homo sapiens, UniProt P00734); test: Inhibition of human thrombin using benzoyl-FVR-AMC as substrate incubated for 10 mins by FRET-enzymatic assay
Proteasome = format: subcellular, Homo sapiens
Dipeptidyl peptidase 4 = Dipeptidyl peptidase 4 (Homo sapiens, UniProt P27487); test: Inhibition of human DPP-4 using Gly-Pro-AMC as substrate incubated for 10 mins by FRET-enzymatic assay
Caspase-3 = target: T3, Caspase-3 (Homo sapiens, UniProt P42574); test: Inhibition of human Caspase-3 activity using Ac-DEVD-pNA as substrate incubated for 5 mins by FRET-enzymatic assay
T3 sequence (P42574 whole entry): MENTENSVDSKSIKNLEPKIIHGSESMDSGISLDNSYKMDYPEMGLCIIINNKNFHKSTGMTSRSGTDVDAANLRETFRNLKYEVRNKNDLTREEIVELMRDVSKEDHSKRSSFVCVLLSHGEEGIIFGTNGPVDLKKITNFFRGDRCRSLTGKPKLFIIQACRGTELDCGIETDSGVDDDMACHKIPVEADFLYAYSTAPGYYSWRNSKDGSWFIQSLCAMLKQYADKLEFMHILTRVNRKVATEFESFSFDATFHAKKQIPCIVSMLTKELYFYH

[5] = Inhibition of Bat coronavirus WIV-1 3CLpro by FRET-enzymatic assay
[6] = Inhibition of MERS-CoV 3CLpro by FRET-enzymatic assay; set-up: species or system Middle East respiratory syndrome-related coronavirus
[7] = Inhibition of HCov-OC43 3CLpro by FRET-enzymatic assay; set-up: species or system Human coronavirus OC43
[8] = target: Replicase polyprotein 1ab (Human coronavirus 229E, UniProt P0C6X1); test: Inhibition of HCov-229E 3CLpro by FRET-enzymatic assay
[9] = Inhibition of Bat coronavirus HKU9 3CLpro by FRET-enzymatic assay; set-up: species or system Rousettus bat coronavirus HKU9
[10] = Inhibition of porcine delta coronavirus 3CLpro by FRET-enzymatic assay; set-up: species or system Porcine deltacoronavirus
3C-like protease = 3C-like protease (Infectious bronchitis virus, UniProt Q3Y5H1); test: Inhibition of Infectious bronchitis virus 3CLpro by FRET-enzymatic assay
[11] = Inhibition of mouse hepatitis virus 3CLpro by FRET-enzymatic assay; set-up: species or system Murine hepatitis virus
[12] = Tmax in ICR mouse at 20 mg/kg, po; format: ADME, organism-based; settings: in vivo
[13] = Half-life in ICR mouse at 20 mg/kg, po; format: ADME, organism-based; settings: in vivo
[14] = Cmax in ICR mouse at 20 mg/kg, po; format: ADME, organism-based; settings: in vivo
[15] = AUC (0 to infinity) in ICR mouse at 20 mg/kg, po; format: ADME, organism-based; settings: in vivo
[16] = AUClast in ICR mouse at 20 mg/kg, po; format: ADME, organism-based; settings: in vivo
[17] = Observed MRT (0 to infinity) in ICR mouse at 20 mg/kg, po; format: ADME, organism-based; settings: in vivo
[18] = Acute toxicity in mouse at 500 mg/kg, po administered twice a day for 5 days; format: organism-based; settings: in vivo, 120 h, time 5 day
[19] = Acute toxicity in mouse assessed as animal death at 500 mg/kg, po administered twice a day for 5 days; format: organism-based; settings: in vivo, 120 h, time 5 day
[20] = Acute toxicity in mouse assessed as body weight change at 500 mg/kg, po administered twice a day for 5 days; format: organism-based; settings: in vivo, 120 h, time 5 day
[21] = target: T4, Replicase polyprotein 1ab (Severe acute respiratory syndrome coronavirus 2, UniProt P0DTD1)
[22] = target: T4, Replicase polyprotein 1ab; remark: listed apart in the source

Chain of Replicase polyprotein 1ab (Human coronavirus 229E, UniProt P0C6X1) (P0C6X1 2966-3267 limits assumed): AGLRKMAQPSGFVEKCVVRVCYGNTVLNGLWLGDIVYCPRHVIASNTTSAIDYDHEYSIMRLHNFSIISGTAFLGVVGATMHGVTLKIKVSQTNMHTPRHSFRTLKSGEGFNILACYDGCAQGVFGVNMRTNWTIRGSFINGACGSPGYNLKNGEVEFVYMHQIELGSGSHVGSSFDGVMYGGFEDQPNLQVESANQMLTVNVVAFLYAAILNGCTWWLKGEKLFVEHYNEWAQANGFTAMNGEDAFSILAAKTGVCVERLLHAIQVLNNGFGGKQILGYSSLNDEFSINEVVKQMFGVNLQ
Chain of Procathepsin L (P07711 whole entry): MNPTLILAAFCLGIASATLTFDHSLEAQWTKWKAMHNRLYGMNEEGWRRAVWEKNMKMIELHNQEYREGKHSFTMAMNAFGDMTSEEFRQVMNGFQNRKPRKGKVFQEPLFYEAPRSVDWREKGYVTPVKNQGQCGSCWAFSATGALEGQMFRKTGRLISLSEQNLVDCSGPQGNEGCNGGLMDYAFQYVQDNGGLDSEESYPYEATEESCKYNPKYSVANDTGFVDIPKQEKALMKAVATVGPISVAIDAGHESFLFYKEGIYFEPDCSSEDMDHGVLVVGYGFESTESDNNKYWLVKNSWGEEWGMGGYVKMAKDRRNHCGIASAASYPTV
Chain of Dipeptidyl peptidase 4 (P27487 whole entry): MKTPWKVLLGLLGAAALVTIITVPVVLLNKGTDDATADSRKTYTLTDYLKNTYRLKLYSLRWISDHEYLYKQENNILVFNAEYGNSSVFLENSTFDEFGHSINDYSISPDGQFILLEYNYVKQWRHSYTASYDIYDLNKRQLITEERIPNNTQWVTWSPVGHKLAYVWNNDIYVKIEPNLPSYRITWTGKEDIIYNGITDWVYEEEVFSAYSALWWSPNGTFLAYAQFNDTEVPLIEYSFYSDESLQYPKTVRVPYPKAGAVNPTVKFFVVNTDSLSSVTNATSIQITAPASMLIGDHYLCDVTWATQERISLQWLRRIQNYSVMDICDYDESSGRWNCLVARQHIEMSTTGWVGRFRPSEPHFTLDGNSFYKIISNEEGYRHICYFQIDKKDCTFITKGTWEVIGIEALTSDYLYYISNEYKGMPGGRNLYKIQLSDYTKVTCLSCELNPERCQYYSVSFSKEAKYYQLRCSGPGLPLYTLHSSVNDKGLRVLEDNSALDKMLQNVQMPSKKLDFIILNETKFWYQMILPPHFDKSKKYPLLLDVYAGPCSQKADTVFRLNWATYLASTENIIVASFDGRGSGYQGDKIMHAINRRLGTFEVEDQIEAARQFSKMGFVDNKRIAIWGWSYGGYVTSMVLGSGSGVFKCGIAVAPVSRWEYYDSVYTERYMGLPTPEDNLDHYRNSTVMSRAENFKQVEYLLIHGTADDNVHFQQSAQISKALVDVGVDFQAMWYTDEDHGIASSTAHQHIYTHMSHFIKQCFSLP
Chain of Cathepsin D (P07339 65-162 limits assumed): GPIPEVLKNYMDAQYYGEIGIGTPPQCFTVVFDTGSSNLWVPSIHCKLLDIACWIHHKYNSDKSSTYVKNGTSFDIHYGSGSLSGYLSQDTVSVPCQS
Chain of Cathepsin D (P07339 169-412 limits assumed): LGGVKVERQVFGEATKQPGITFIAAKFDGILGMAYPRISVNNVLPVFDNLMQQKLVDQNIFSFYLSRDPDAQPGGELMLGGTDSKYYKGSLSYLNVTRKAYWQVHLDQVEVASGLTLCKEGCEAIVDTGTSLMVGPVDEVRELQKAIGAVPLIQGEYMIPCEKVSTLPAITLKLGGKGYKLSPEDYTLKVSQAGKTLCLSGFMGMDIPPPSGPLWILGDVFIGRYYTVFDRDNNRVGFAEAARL
Chain of 3C-like protease (Q3Y5H1 whole entry): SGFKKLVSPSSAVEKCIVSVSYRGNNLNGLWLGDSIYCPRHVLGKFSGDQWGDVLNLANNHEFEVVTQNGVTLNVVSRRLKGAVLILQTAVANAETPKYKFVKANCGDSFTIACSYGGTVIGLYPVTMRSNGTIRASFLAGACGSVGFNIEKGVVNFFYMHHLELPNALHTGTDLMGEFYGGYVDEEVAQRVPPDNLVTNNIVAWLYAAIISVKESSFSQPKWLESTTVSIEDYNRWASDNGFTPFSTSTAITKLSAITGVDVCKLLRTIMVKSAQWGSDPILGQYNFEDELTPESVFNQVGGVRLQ

## CN1CCN(C(=O)c2cc(Br)cc([N+](=O)[O-])c2N[C@@H]2CCCC[C@@H]2NC(=O)c2cc(=O)[nH]c3c(F)cccc23)CC1
[1]
  CC50 at 24 h: > 200 µM
[2]
  K: 3.8 10^5/M/s
[3]
  K: 0.007 s⁻¹
[4]
  IC50: > 100 µM
Cathepsin B
  IC50: > 100 µM
Cathepsin D
  IC50: > 100 µM
Cathepsin K
  IC50: > 100 µM
Procathepsin L
  IC50: > 100 µM
Trypsin
  IC50: > 100 µM
Prothrombin
  IC50: > 100 µM
Proteasome
  IC50: > 100 µM
Dipeptidyl peptidase 4
  IC50: > 100 µM
Caspase-3
  IC50: > 100 µM
[5]
  IC50: 0.086 µM
[6]
  IC50: 1.68 µM
[7]
  IC50: 0.94 µM
[8]
  IC50: 2.56 µM
[9]
  IC50: 0.402 µM
[10]
  IC50: > 10 µM
3C-like protease
  IC50: > 10 µM
[11]
  IC50: > 10 µM
[12]
  Tmax: 3 min
[13]
  half-life: 1.21 h
[14]
  Cmax: 76.3 ng/mL
[15]
  AUC(0-inf): 77.7 ng·h/mL
[16]
  AUC(0-t): 70.6 ng·h/mL
[17]
  MRT inf: 1.44 h
[18]
  Activity: Non-Toxic
[19]
  Activity: Non-Toxic
[20]
  Activity: Non-Toxic
[21]
  IC50: 0.0211 µM
[22]
  Kd: 0.0184 µM
